{"source": "PubChem BioAssay AID720495", "about": "(Broad Institute, 2013)", "note": "Records with an inconclusive call do not appear. The source made the active and inactive calls. How the calls were made is not given here."}
{"target": "Protein AF-9 (Homo sapiens) (UniProt P42568)", "sequence (P42568 whole entry, looked up)": "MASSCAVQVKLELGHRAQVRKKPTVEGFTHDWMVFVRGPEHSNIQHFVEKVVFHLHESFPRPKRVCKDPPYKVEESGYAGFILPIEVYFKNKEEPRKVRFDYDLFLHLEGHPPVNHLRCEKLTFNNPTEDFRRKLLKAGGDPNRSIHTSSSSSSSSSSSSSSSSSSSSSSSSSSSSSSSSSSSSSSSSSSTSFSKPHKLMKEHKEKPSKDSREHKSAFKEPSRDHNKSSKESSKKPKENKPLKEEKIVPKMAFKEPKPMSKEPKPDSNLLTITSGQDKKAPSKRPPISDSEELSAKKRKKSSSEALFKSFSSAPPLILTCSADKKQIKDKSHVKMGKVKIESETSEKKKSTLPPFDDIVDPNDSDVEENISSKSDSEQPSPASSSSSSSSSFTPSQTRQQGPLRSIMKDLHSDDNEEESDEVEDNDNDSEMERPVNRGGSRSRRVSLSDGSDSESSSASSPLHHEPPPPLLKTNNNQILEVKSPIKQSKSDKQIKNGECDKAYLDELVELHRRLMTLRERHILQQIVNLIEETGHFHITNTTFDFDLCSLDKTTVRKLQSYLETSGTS", "assay": "inhibitors of AF4-AF9 protein interaction, dose response, biochemical, cherry-picked samples, plate reader (AID 720495)", "settings": "biochemical protein-protein interaction assay", "units": {"AC50": "µM"}}
{"smiles": "CCCN(CC1CC1)c1cc2c(c3c1ccn3C)C1CCC2C1", "note": "(stereo not drawn)", "AC50": 7.79}
{"smiles": "O=C(CN1CCCC1)N/N=C/c1c(O)ccc2ccccc12", "AC50": 0.249}
{"smiles": "COc1cccc(NC2=C(NCCO)C(=O)c3ccccc3C2=O)c1", "AC50": 6.38}
{"smiles": "CN(C)c1ccc(N=Nc2ccccc2Br)cc1", "AC50": 10.3}
{"smiles": "O=C(O)CCCNc1cc(N2CCN(C(=O)c3ccco3)CC2)c2noc3c2c1C(=O)c1ccccc1-3", "AC50": 10.6}
{"smiles": "CC1(C)CC(Nc2ccc(Nc3ccccc3)cc2)CC(C)(C)N1", "AC50": 6.78}
{"smiles": "CC[C@H](C)[C@@H]1NC(=O)c2cc([N+](=O)[O-])cc(F)c2NCCCC[C@@H](C(N)=O)NC(=O)[C@H](CCCCN)NC1=O", "AC50": 9.36}
{"smiles": "CN(C)c1ccc(N=C/C=C2/N(C)c3ccccc3C2(C)C)cc1", "AC50": 7.5}
{"smiles": "CN(C)c1ccc(C=c2c3ccccc3n3c2c2ccccc2[n+]3C)cc1", "AC50": 1.65}
{"smiles": "NC(N)=N/N=C/c1cn(-c2ccccc2)nc1-c1cccs1", "AC50": 3.92}
{"smiles": "CN(C)c1ccc2nc3ccc(=O)cc-3sc2c1", "AC50": 11.3}
{"smiles": "COc1cc(NCCCCCCN)c2ncccc2c1OC", "AC50": 2.62}
{"smiles": "CSc1ccc2c(c1)N(CCC1CCCCN1C)c1ccccc1S2", "note": "(stereo not drawn)", "AC50": 6.31}
{"smiles": "CCN(CC)c1ccc(N=C2C(=O)Nc3ccccc32)cc1", "AC50": 2.77}
{"smiles": "COc1ccc(C2CC(=O)Oc3c(C(CCN4CCCC(C)C4)c4ccc(N(C)C)cc4)c(OC)cc(OC)c32)cc1", "note": "(stereo not drawn)", "AC50": 0.68}
{"smiles": "CN(C)c1ccc(/C=C2/C[N+](C)(C)C/C(=C/c3ccc(N(C)C)cc3)C2=O)cc1", "AC50": 2.81}
{"smiles": "COCCN=c1scc(-c2ccco2)n1/N=C/c1ccc(O)c(O)c1O", "AC50": 0.538}
{"smiles": "CSC(=S)N/N=C/c1c[nH]c2ccccc12", "AC50": 11.5}
{"smiles": "CCN(CC)c1ccc(CNc2ccc3c(c2)ncn3C(C)(C)C)cc1", "AC50": 3.48}
{"smiles": "COc1cc(OC)c2c(-c3ccccc3)cc(=O)oc2c1C(CCN1CCCCC1)c1ccc2c(c1)OCO2", "note": "(stereo not drawn)", "AC50": 1.08}
{"smiles": "CN(C)c1ccc(C=c2c3ccccc3n3c2cc(-c2ccccc2)[n+]3C)cc1", "AC50": 2.43}
{"smiles": "CN1\\C(=C/C=C/C=C/C=[N+](C)C)C(C)(C)c2ccccc21", "AC50": 9.97}
{"smiles": "CN(C)CCCNC(=S)NCC(c1ccc(Cl)cc1Cl)c1c[nH]c2ccccc12", "note": "(stereo not drawn)", "AC50": 10.7}
{"smiles": "CN1CCN(C(c2ccc(Br)cc2)c2cc(Cl)c3cccnc3c2O)CC1", "note": "(stereo not drawn)", "AC50": 1.47}
{"smiles": "COc1ccc2nc3ccccc3nc2c1N", "AC50": 3.44}
{"smiles": "Oc1cc(Nc2cccnc2)cc2cccnc12", "AC50": 6.03}
{"smiles": "Cc1ncc(CO)c(/C=N/NC(=S)Nc2ccc(Cl)c(Cl)c2)c1O", "AC50": 5.79}
{"smiles": "C#CCOCCOCCOCCNc1nc(N2CCN(C(=O)[C@H]([C@@H](C)CC)n3cc(CCCN=C(N)N)nn3)CC2)nc(N2CCN(C(=O)[C@H](CCCCN)n3cc(CCCC)nn3)CC2)n1", "AC50": 8.98}
{"smiles": "CC1NC(=O)NC1CCCCCC(=O)Nc1ccc(F)c(Cl)c1", "note": "(stereo not drawn)", "AC50": "< 0.08"}
{"smiles": "COc1ccc(NCc2nn(CC(=O)c3ccc(Br)cc3)c3[n+]2CCCCC3)cc1", "AC50": 8.83}
{"smiles": "CCOc1ccc(NCc2cccn2-c2nnc(N3CCC(C(=O)NCCCN4C(C)CCCC4C)CC3)s2)cc1", "note": "(stereo not drawn)", "AC50": 5.36}
{"smiles": "CN1CCN(C(c2ccccn2)c2cc(Cl)c3cccnc3c2O)CC1", "note": "(stereo not drawn)", "AC50": 2.05}
{"smiles": "CCC1CN2CCc3cc(OC)c(OC)cc3C2CC1CC1NCCc2c1[nH]c1ccc(O)cc21", "note": "(stereo not drawn)", "AC50": 7.26}
{"smiles": "CC1(C)CNc2cc(N)ccc2S1", "AC50": 2.52}
{"target": "Protein AF-9 (Homo sapiens) (UniProt P42568)", "assay": "inhibitors of AF4-AF9 protein interaction, dose response, biochemical, cherry-picked samples, plate reader (AID 720495)", "settings": "biochemical protein-protein interaction assay, at 10 µM (top of the series)"}
{"smiles": "Cc1cc(C)c2sc(N(CCCN(C)C)C(=O)c3ccc(S(=O)(=O)N4CCCc5ccccc54)cc3)nc2c1", "activity change, negative = inhibition": "inactive"}
{"smiles": "Nc1ccc(O)c2c1C(=O)c1ccccc1C2=O", "activity change, negative = inhibition": "inactive"}
{"smiles": "CCOc1ccc(/C=N/Nc2cc(N3CCOCC3)ncn2)c(O)c1", "activity change, negative = inhibition": "inactive"}
{"smiles": "CCOc1ccc(OCCSc2ccc(S(=O)(=O)N3CCN(C)CC3)cn2)cc1", "activity change, negative = inhibition": "inactive"}
{"smiles": "c1ccc2c(Nc3ccc4c(c3)OCCO4)c3c(nc2c1)CCCC3", "activity change, negative = inhibition": "inactive"}
{"smiles": "Cc1c(C)n(Cc2ccc(Cl)cc2)c2ccc(C(=O)NCCCN3CCOCC3)cc12", "activity change, negative = inhibition": "inactive"}
{"smiles": "COc1ccc(-n2cc(CNCCc3cnc[nH]3)c(-c3cccc(F)c3)n2)cc1", "activity change, negative = inhibition": "inactive"}
{"smiles": "CC#C[C@]1(O)CC[C@H]2[C@@H]3CCC4=CC(=O)CCC4=C3[C@@H](c3ccc(N(C)C)cc3)C[C@@]21C", "activity change, negative = inhibition": "inactive"}
{"smiles": "CC(C)C[C@@H](C(=O)NC1CCN(Cc2ccccc2)CC1)N1C(=O)N2CCc3c([nH]c4ccccc34)[C@@]2(C)C1=O", "activity change, negative = inhibition": "inactive"}
{"smiles": "CC1Cc2ccccc2N1C(=O)c1ccc(N2CCCC2)c([N+](=O)[O-])c1", "note": "(stereo not drawn)", "activity change, negative = inhibition": "inactive"}
{"smiles": "CN1CCN(CCCN2c3ccccc3Sc3ccc(C(F)(F)F)cc32)CC1", "activity change, negative = inhibition": "inactive"}
{"smiles": "CC(=O)Nc1ccc(S(=O)(=O)NC2=C(N3CCN(Cc4ccccc4)CC3)C(=O)c3ccccc3C2=O)cc1", "activity change, negative = inhibition": "inactive"}
{"smiles": "CCN(CC)CCNc1cccc2sc3ccccc3c(=O)c12", "activity change, negative = inhibition": "inactive"}
{"smiles": "CCOc1ccc(NC(=S)N(CCN2CCOCC2)Cc2ccc3c(c2)CCCN3CC)cc1", "activity change, negative = inhibition": "inactive"}
{"smiles": "CN(C)c1ccc(C(CNC(=O)c2ccccc2)c2c[nH]c3ccccc23)cc1", "note": "(stereo not drawn)", "activity change, negative = inhibition": "inactive"}
{"smiles": "O=C(Cc1cccnc1)N1CC(=O)N2[C@H](C1)[C@H](c1ccc(C3=CCCC3)cc1)[C@@H]2CO", "activity change, negative = inhibition": "inactive"}
{"smiles": "COc1ccc(C)cc1Nc1n[n+](-c2ccccc2)c(-c2c(Cl)cccc2Cl)s1", "activity change, negative = inhibition": "inactive"}
{"smiles": "C(=C\\c1ccc2ccccc2n1)/c1ccccc1", "activity change, negative = inhibition": "inactive"}
{"smiles": "C[C@@H]1CCCCO[C@H](CN(C)Cc2ccc(C(F)(F)F)cc2)[C@H](C)CN([C@H](C)CO)C(=O)c2cc(N(C)C)ccc2O1", "activity change, negative = inhibition": "inactive"}
{"smiles": "CCOC(=O)C1CCN(C2=C(NS(=O)(=O)c3ccc(Cl)cc3)C(=O)c3ccccc3C2=O)CC1", "activity change, negative = inhibition": "inactive"}
{"smiles": "COc1ccc(-c2ccc3[nH]c4c(c3c2)CCN2C[C@H]3[C@H](C)ON(C)[C@H]3C[C@@H]42)cc1", "activity change, negative = inhibition": "inactive"}
{"smiles": "C[C@H](CO)N1C[C@H](C)[C@H](CN(C)CC2CC2)OCCCC[C@H](C)Oc2ccc(NC(=O)Nc3ccc4c(c3)OCO4)cc2C1=O", "activity change, negative = inhibition": "inactive"}
{"smiles": "Cc1csc(Nc2ccccc2)[n+]1-c1ccccc1", "activity change, negative = inhibition": "inactive"}
{"smiles": "COc1ccc(N2CCN(C3CCCCC3NS(=O)(=O)c3ccccc3)CC2)cc1", "note": "(stereo not drawn)", "activity change, negative = inhibition": "inactive"}
